The values that follow come from US10568933B2, “Beta-casein A2 and blood glucose levels” (THE A2 MILK COMPANY LIMITED, priority 2013, dated 2020).

The assay concerns SH-SY5Y cells. In words: Effect of BCM-7 on DNA methylation levels (MBD-seq). In kind it is cell-based, human. As to conditions: 1 μM, 4 hours. On the procedure: Shifts in global DNA methylation patterns induced by BCM-7 were investigated using methyl-CpG binding domain (MBD) protein-enriched genome sequencing (MBD-seq) as described previously (Trivedi M., et al., Mol. Pharm. 2014), whereas mRNA translation microarray data was obtained using an Agilent V3 microarray chip, from non-treated control SH-SY5Y cells and cells treated for 4 hours with 1 μM BCM-7.
Genomic DNA was extracted from samples using the Easy DNA kit (Invitrogen K1800-01) using the appropriate protocol for cell lines. Fragmentation was performed on a Covaris S2 ultrasonicator using the following settings: duty cycle 10%, intensity 5, 200 cycles per burst during 200 sec. Fragments were obtained having an average length of 200 bp. The power mode is frequency sweeping, temperature 6-8° C., water level 12. […] DNA with an input from […] was analysed on the Agilent 2100 using a DNA 1000 chip. […] The concentrations of fragmented and captured DNA were determined on a Fluostar Optima plate reader with the Quant-iT PicoGreen dsDNA Assay Kit (Invitrogen P7589) at 480/520 nm. […]
The Illumina library amplification index protocol was used with the following alterations: 22 μl DNA was used and performed 21 cycles run. […] 1 μl was applied to an Agilent 2100 HS DNA chip and the concentration was determined by smear analysis on the Agilent 2100. […]

Consider beta-casomorphin-7 [BCM-7], for which the “Epigenetic status (DNA methylation) of genes responsible for glucose metabolism, synthesis and glucose homeostasis” value is reported as “altered”.
